pEC50: −log10 of the molar value.
Assays:
C57bl/6J Mice = assay: GPR120 C57bl6 mouse IPGTT; format: in vivo; conditions: 30.0 mg/kg, dosed 30 minutes prior to IP glucose 1.5 g/kg; compared with vehicle
Description: Male, C57bl/6J Mice were ordered in at 8 weeks of age from Jackson Labs. Individual mice weighed anywhere in the range of 25-30 grams on study day. The mice were fasted, with removal of food occurring at 7 am on the morning of the study. Animals were moved into the room at 10:00 am, to give them time to acclimate. Glucose (insulin syringes) was drawn up either the night before or the morning of the study. Glucose was dosed (IP) at 1.5 g/kg at 7.5 ml/kg (20% glucose straight TEKNOVA, 250 ml sterile bottle w/ catalogue number G0525). Test compounds were kept spinning and were only drawn into the syringes prior to study commencement. Animals were bled via tail snip to determine basal glucose levels prior to dosing of treatments. An Ascensia BREEZE Blood Glucose Monitoring System by Bayer (using unique 10-test disks) was used for determining glucose levels. The bleeds started at approximately 12:45 pm and dosing started, at 1-minute intervals, immediately after. All groups were dosed 30 minutes prior to glucose administration at a dose volume of 10 ml/kg (the dose volume was calculated separately for each individual animal). Thirty minutes after the first dose animals were bled again for a second baseline, or T=0, and immediately dosed with glucose via an i.p. injection. The exact dose volume for glucose was also calculated separately for each individual animal. […]

[1] = target: T1, long form of human GPR120 (Homo sapiens, UniProt Q5NUL3); assay: Human GPR120 DiscoveRx PathHunter β-Arrestin assay, Procedure β-arrestin A; format: cell-based; conditions: PathHunter CHO-K1 GPR120 β-Arrestin cell line, 3000 cells per well
T1 construct: host or cells: PathHunter CHO-K1 GPR120 β-Arrestin Cell Line
T1 sequence (Q5NUL3 1-377 isoform Q5NUL3-1): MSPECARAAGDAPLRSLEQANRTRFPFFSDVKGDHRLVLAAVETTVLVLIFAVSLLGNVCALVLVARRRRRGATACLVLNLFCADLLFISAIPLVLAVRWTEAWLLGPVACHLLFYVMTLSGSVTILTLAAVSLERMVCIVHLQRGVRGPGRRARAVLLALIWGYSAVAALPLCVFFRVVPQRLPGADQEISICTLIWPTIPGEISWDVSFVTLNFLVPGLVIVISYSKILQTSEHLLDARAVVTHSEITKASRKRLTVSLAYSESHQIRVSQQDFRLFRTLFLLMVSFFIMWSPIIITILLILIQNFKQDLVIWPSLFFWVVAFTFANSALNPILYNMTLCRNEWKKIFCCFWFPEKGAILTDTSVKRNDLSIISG
T1 sequence (P32121 whole entry partner): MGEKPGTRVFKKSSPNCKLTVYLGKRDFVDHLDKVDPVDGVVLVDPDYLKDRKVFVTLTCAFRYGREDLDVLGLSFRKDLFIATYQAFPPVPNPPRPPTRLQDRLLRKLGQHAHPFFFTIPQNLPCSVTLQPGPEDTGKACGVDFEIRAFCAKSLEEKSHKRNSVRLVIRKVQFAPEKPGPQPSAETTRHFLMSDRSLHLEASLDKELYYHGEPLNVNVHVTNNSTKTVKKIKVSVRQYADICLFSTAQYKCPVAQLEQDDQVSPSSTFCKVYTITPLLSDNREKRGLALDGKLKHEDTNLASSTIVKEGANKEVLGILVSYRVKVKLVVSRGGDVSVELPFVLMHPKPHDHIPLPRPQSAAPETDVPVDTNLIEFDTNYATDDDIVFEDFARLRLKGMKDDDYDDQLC
Procedure, shortened: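 PathHunter CHO-K1 β-arrestin cells (NM_181745 construct) were plated at 3000/well overnight, then held 60 min in HBSS/20 mM HEPES/0.1% BSA, pH 7.4. Compounds (dilution series 25–0.012 µM before addition) were added for 90 min at 37 °C, followed by 60 min RT luminescence detection. EC50 was fitted from % of positive control with Hill slope fixed at 1.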

[2] = target: T2, short form of the GPR120 receptor (Homo sapiens, UniProt Q5NUL3); assay: Human GPR120 DiscoveRx PathHunter β-Arrestin assay, Procedure β-arrestin B; format: cell-based; conditions: PathHunter CHO-K1 GPR120S β-Arrestin cell line, 5000 cells/well
T2 construct: host or cells: PathHunter CHO-K1 GPR120S β-Arrestin Cell Line
T2 sequence (Q5NUL3 whole entry): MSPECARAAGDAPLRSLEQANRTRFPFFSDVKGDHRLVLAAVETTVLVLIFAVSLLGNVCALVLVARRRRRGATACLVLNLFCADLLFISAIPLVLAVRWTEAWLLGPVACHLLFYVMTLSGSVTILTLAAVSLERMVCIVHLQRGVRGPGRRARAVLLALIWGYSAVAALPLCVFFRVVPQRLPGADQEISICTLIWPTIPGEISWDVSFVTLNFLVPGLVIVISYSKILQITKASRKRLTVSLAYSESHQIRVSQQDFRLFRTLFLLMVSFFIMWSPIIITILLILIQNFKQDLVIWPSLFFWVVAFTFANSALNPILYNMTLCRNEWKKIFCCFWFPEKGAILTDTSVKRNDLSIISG
T2 sequence (P32121 whole entry partner): as the sequence (P32121 whole entry partner) above
From the text: The binding of an agonist (medium/long chain fatty acids or small molecule agonists) to the G-protein-coupled receptor GPR120 activates phospholipase C, leading to release of intracellular Ca^+2 through the generation of inositol 1,4,5-trisphosphate (InsP3 or IP3). GPR120 activation can also trigger intracellular signaling via recruitment of β-Arrestin. In the present method, agonist-induced activation of the human GPR120 receptor is monitored through the use of PathHunter CHO-K1 GPR120 β-Arrestin Cell Line engineered by DiscoveRx, as detailed below. The cell lines are designed to co-express both the ProLink/Enzyme Donor (PK)-tagged GPCR and the Enzyme […] (EA)-tagged Beta-Arrestin fusion proteins. Upon GPR120 receptor stimulation/activation, the EA-tagged β-Arrestin portion is translocated to the tagged receptor, where the two enzyme fragments are brought within close proximity. Under these conditions, these fragments can interact and form an active Beta-gal enzyme complex through Enzyme Fragment Complementation (EFC). This active Beta-gal complex can enzymatically hydrolyse the substrate to produce a detectable light signal; therefore, activation as a function of agonist concentration can be expressed as an EC50 value to determine relative compound activities. This in vitro assay therefore serves to assess compound agonist activity of the GPR120.
In Procedure β-arrestin B the cells used were PathHunter CHO-K1 GPR120S β-Arrestin Cell Line, expressing the short form of the GPR120 receptor (Accession #NM_181745), with 5000 cells/well.
The selected CHO-K1 GPR120 β-Arrestin cells were cultured in Ham's F12 media supplemented with 10% fetal bovine serum (FBS), 1% Glutamine, 1×p/s, 800 μg/ml G418 and 300 μg/ml Hygromycin B (for selection). Cell stocks were maintained and grown in a sub-confluent state using standard cell culture procedures. The day before the experiment, the cells were harvested with non-enzymatic cell dissociation buffer and re-suspended in complete growth media at the desired concentration. A Corning 384-plate was then seeded with the proper number of cells in a volume of 25 μL, per well. The seeded plates were incubated overnight at 37° C.
On the day of the experiment, the Assay Buffer containing (a) HBSS with Ca^++ and Mg^++, (b) 20 mM HEPES, and (c) 0.1% BSA stabilizer (pH 7.4) was prepared. The growth medium was gently removed from the cell plates and 20 μL of Assay Buffer added to each well. The plate was then incubated at 37° C. for 60 mins. Test compounds were serially diluted in Assay Buffer to desired concentrations (more particularly, to one or more of the following μM concentrations: 25 μM, 12.5 μM, 6.25 μM, 3.125 μM, 1.562 μM, 0.781 μM, 0.391 μM, 0.195 μM, 0.098 μM, 0.049 μM, 0.024 μM, 0.012 μM). Five μl of compound dilution was then added to each well and the plate incubated at 37° C. for 90 mins. The detection reagents were prepared according to the manufacture's instruction. Twelve μL of the detection reagents were added to each well and the plate incubated at room temperature for 60 mins.
The plates were read on an EnVision instrument, using Protocol name: Luminescence, Plate type: 384 Costar, Measurement height: 3 mm, Measurement time: 1 s, Aperture: 384 Plate aperture. The % activity relative to the positive control was calculated using the following equation:
The % Activity values were plotted versus the concentration of test compound and fitted to a sigmoidal dose-response curve with a Hill slope=1 (fixed value) using nonlinear regression with GraphPad Prism 5.0 to calculate the EC50 values. The Fitting Equation was: Y=Bottom+(Top−Bottom)/(1+10^((LogEC50−X)*HillSlope)), where X is the log of the concentration and Y is the response.

| pEC50 [1] | pEC50 [2] | SMILES | GPR120 C57bl6 Mouse IPGTT Results (C57bl/6J Mice) |
| --- | --- | --- | --- |
| 5.99 | – | Cc1c(CCC(=O)O)ccc(OCc2cccn2-c2ccc(Cl)cc2)c1C [Compound 1, 3-(4-{[1-(4-Chlorophenyl)-1H-pyrrol-2-yl]methoxy}-2,3-dimethylphenyl)propanoic acid] | not different |
| 7.28 | 7.20 | OCCCc1ccc(OCc2c(C(F)(F)F)ccn2-c2ccc(Cl)cc2)c(F)c1F [Compound 29, 3-(4-{[1-(4-Chlorophenyl)-3-(trifluoromethyl)-1H-pyrrol-2-yl]methoxy}-2,3-difluorophenyl)propan-1-ol] | – |
| 6.77 | 6.75 | CCc1ccc(-n2ccc(C(F)(F)F)c2COc2ccc(CCC(=O)O)c(F)c2F)cc1 [Compound 34, 3-(4-[[1-(4-ethylphenyl)-3-(trifluoromethyl)-1H-pyrrol-2-yl]methoxy]-2,3-difluorophenyl)propanoic acid] | – |
| 6.58 | 6.66 | Cc1ccc(-n2ccc(C(F)(F)F)c2COc2c(F)cc(CCC(=O)O)cc2F)cc1 [Compound 39, 3-(3,5-difluoro-4-[[1-(4-methylphenyl)-3-(trifluoromethyl)-1H-pyrrol-2-yl]methoxy]phenyl)propanoic acid] | – |
